# Results: ChEMBL document CHEMBL5678809, “Preclinical characterization of GLPG0634, a selective inhibitor of JAK1, for the treatment of inflammatory diseases” (J Immunol, 2013)
# The source made the active and inactive calls. The rule behind the calls is not given here.
# Columns and labels:
# [1] = molecular target: Tyrosine-protein kinase ABL1 (Homo sapiens, UniProt P00519); test: Inhibition of ABL (unknown origin)
# [2] = molecular target: Tyrosine-protein kinase ABL2 (Homo sapiens) (UniProt P42684); test: Inhibition of Arg (unknown origin) at 1 uM relative to control
# [3] = molecular target: NUAK family SNF1-like kinase 1 (Homo sapiens) (UniProt O60285); test: Inhibition of ARK5 (unknown origin) at 1 uM relative to control
# [4] = molecular target: Aurora kinase B (Homo sapiens, UniProt Q96GD4); test: Inhibition of AURORA-B (unknown origin)
# [5] = molecular target: Calcium/calmodulin-dependent protein kinase type 1 (Homo sapiens) (UniProt Q14012); test: Inhibition of CaMK1 (unknown origin) at 1 uM relative to control
# [6] = molecular target: Cyclin-dependent kinase 2 (Homo sapiens, UniProt P24941); test: Inhibition of CDK2 (unknown origin)
# [7] = molecular target: Serine/threonine-protein kinase 17A (Homo sapiens) (UniProt Q9UEE5); test: Inhibition of DRAK1 (unknown origin) at 1 uM relative to control
# [8] = molecular target: Dual specificity tyrosine-phosphorylation-regulated kinase 2 (Homo sapiens) (UniProt Q92630); test: Inhibition of DYRK2 (unknown origin) at 1 uM relative to control
# [9] = molecular target: Vascular endothelial growth factor receptor 3 (Homo sapiens, UniProt P35916); test: Inhibition of Flt4 (unknown origin)
# [10] = molecular target: Macrophage colony-stimulating factor 1 receptor (Homo sapiens, UniProt P07333); test: Inhibition of FMS (unknown origin)
# [11] = molecular target: Mitogen-activated protein kinase kinase kinase kinase 2 (Homo sapiens, UniProt Q12851); test: Inhibition of GCK (unknown origin)
# [12] = molecular target: G protein-coupled receptor kinase 5 (Homo sapiens) (UniProt P34947); test: Inhibition of GRK5 (unknown origin) at 1 uM relative to control
# [13] = molecular target: Homeodomain-interacting protein kinase 2 (Homo sapiens, UniProt Q9H2X6); test: Inhibition of HIPK2 (unknown origin)
# [14] = molecular target: Serine/threonine-protein kinase ICK (Homo sapiens, UniProt Q9UPZ9); test: Inhibition of ICK (unknown origin)
# [15] = molecular target: Interleukin-1 receptor-associated kinase 4 (Homo sapiens, UniProt Q9NWZ3); test: Inhibition of IRAK4 (unknown origin)
# [16] = molecular target: Tyrosine-protein kinase Lck (Homo sapiens, UniProt P06239); test: Inhibition of LCK (unknown origin)
# [17] = molecular target: Serine/threonine-protein kinase 3 (Homo sapiens) (UniProt Q13188); test: Inhibition of MST2 (unknown origin) at 1 uM relative to control
# [18] = molecular target: FKBP12A/mTOR (Homo sapiens) (UniProt P62942+P42345); test: Inhibition of mTOR/FKBP12 (unknown origin) at 1 uM relative to control; type: protein-complex assay
# [19] = molecular target: Serine/threonine-protein kinase pim-1 (Homo sapiens) (UniProt P11309); test: Inhibition of Pim-1 (unknown origin) at 1 uM relative to control
# [20] = molecular target: Serine/threonine-protein kinase pim-2 (Homo sapiens) (UniProt Q9P1W9); test: Inhibition of Pim-2 (unknown origin) at 1 uM relative to control
# [21] = molecular target: Protein kinase C beta type (Homo sapiens) (UniProt P05771); test: Inhibition of PKCb (unknown origin) at 1 uM relative to control
# [22] = molecular target: Protein-tyrosine kinase 2-beta (Homo sapiens) (UniProt Q14289); test: Inhibition of Pyk2 (unknown origin) at 1 uM relative to control
# [23] = molecular target: Proto-oncogene tyrosine-protein kinase ROS (Homo sapiens) (UniProt P08922); test: Inhibition of Ros (unknown origin) at 1 uM relative to control
# [24] = molecular target: Tyrosine-protein kinase receptor TYRO3 (Homo sapiens) (UniProt Q06418); test: Inhibition of Rse (unknown origin) at 1 uM relative to control
# [25] = molecular target: Ribosomal protein S6 kinase alpha-1 (Homo sapiens) (UniProt Q15418); test: Inhibition of Rsk1 (unknown origin) at 1 uM relative to control
# [26] = molecular target: Serine/threonine-protein kinase Sgk2 (Homo sapiens) (UniProt Q9HBY8); test: Inhibition of SGK2 (unknown origin) at 1 uM relative to control
# [27] = molecular target: Serine/threonine-protein kinase SIK1 (Homo sapiens) (UniProt P57059); test: Inhibition of SIK (unknown origin) at 1 uM relative to control
# [28] = molecular target: Testis-specific serine/threonine-protein kinase 1 (Homo sapiens) (UniProt Q9BXA7); test: Inhibition of TSSK1 (unknown origin) at 1 uM relative to control
# [29] = molecular target: Tyrosine-protein kinase TXK (Homo sapiens) (UniProt P42681); test: Inhibition of Txk (unknown origin) at 1 uM relative to control
# [30] = molecular target: Tyrosine-protein kinase Mer (Homo sapiens) (UniProt Q12866); test: Inhibition of Mer (unknown origin) at 1 uM relative to control
# [31] = molecular target: MAP kinase-interacting serine/threonine-protein kinase 2 (Homo sapiens, UniProt Q9HBH9); test: Inhibition of MNK2 (unknown origin) at 1 uM relative to control
# [32] = molecular target: Receptor-type tyrosine-protein kinase FLT3 (Homo sapiens) (UniProt P36888); test: Inhibition of Flt3 (unknown origin) at 1 uM relative to control
# [33] = Volume of distribution at steady state in CD-1 mouse at 1 mg/kg, iv measured upto 8 hrs by LC-MS analysis; type: ADME, organism-based; conditions: in vivo, read-out: Vdss
# [34] = AUC (0 to 24 hrs) in Sprague-Dawley rat at 5 mg/kg, po measured upto 24 hrs by LC-MS analysis; type: ADME, organism-based; conditions: in vivo
# [35] = tested on: Rattus norvegicus; test: Antiarthritic activity against collagen-induced arthritis Dark Agouti rat model assessed as reduction in clinical score at 0.1 mg/kg, po measured after day 5; type: functional, organism-based; conditions: time 5.0 day
# [36] = Tmax in Dark Agouti rat at 3 to 30 mg/kg, po; type: ADME, organism-based; conditions: in vivo, dose 3-30 mg/kg
# [37] = tested on: Mus musculus; test: Antiarthritic activity against collagen-induced arthritis DBA/1J mouse model assessed as reduction in infiltration of CD3 positive T cells in paw at 50 mg/kg, po administered twice daily for 14 days by immunohistochemistry analysis; type: functional, organism-based; conditions: T-cell, time 14.0 day
# [38] = tested on: Mus musculus; test: Antiarthritic activity against collagen-induced arthritis DBA/1J mouse model assessed as reduction in MX2 expression in paw at 50 mg/kg, po measured for 2 weeks by RT-PCR analysis; type: functional, organism-based
# [39] = tested on: Mus musculus; test: Antiarthritic activity against collagen-induced arthritis DBA/1J mouse model assessed as M-CSF1 level in serum at 50 mg/kg, po measured for 4 hrs by luminex analysis (reference value: 11.1 +/- 1.3 ng/ml); type: functional
# [40] = tested on: Mus musculus; test: Antiarthritic activity against collagen-induced arthritis DBA/1J mouse model assessed as reduction in MCP-1 level in serum at 50 mg/kg, po measured for 4 hrs by luminex analysis; type: functional, organism-based
# [41] = tested on: Mus musculus; test: Antiarthritic activity against collagen-induced arthritis DBA/1J mouse model assessed as reduction in MX2 level in whole blood at 50 mg/kg, po measured for 2 weeks by luminex analysis; type: functional, organism-based
# G protein-coupled receptor kinase 5 (Homo sapiens), sequence (P34947 whole entry, looked up): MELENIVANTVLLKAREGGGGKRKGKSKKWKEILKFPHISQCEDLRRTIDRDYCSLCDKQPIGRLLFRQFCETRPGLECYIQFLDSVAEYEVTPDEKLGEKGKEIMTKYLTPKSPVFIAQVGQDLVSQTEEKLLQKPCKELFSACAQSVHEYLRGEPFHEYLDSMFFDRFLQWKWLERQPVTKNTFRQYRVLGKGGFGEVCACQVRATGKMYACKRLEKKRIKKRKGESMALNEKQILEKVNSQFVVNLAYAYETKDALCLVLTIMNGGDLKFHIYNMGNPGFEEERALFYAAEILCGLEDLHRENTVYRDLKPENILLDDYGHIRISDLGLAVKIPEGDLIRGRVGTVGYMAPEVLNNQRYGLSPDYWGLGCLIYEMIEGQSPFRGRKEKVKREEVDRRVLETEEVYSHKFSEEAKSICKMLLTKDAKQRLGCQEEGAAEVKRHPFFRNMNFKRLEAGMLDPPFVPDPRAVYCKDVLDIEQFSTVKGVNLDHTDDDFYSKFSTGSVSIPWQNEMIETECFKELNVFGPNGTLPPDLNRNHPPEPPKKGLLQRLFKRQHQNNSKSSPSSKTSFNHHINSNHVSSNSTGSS
# Serine/threonine-protein kinase pim-1 (Homo sapiens), sequence (P11309 whole entry, looked up): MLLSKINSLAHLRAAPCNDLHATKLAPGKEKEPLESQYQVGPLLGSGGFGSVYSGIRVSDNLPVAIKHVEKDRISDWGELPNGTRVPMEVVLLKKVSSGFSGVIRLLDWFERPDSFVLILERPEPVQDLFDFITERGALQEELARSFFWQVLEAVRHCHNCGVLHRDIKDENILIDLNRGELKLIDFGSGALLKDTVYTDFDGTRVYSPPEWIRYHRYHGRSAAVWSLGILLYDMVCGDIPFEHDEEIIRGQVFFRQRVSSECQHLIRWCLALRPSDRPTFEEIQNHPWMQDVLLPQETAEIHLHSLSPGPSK
# FKBP12A/mTOR (Homo sapiens), sequence (P62942 2-108 limits assumed, other chains not shown): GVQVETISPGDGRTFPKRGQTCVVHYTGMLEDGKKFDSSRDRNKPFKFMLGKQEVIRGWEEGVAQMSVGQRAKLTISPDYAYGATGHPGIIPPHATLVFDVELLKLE
# Proto-oncogene tyrosine-protein kinase ROS (Homo sapiens), sequence (P08922 whole entry): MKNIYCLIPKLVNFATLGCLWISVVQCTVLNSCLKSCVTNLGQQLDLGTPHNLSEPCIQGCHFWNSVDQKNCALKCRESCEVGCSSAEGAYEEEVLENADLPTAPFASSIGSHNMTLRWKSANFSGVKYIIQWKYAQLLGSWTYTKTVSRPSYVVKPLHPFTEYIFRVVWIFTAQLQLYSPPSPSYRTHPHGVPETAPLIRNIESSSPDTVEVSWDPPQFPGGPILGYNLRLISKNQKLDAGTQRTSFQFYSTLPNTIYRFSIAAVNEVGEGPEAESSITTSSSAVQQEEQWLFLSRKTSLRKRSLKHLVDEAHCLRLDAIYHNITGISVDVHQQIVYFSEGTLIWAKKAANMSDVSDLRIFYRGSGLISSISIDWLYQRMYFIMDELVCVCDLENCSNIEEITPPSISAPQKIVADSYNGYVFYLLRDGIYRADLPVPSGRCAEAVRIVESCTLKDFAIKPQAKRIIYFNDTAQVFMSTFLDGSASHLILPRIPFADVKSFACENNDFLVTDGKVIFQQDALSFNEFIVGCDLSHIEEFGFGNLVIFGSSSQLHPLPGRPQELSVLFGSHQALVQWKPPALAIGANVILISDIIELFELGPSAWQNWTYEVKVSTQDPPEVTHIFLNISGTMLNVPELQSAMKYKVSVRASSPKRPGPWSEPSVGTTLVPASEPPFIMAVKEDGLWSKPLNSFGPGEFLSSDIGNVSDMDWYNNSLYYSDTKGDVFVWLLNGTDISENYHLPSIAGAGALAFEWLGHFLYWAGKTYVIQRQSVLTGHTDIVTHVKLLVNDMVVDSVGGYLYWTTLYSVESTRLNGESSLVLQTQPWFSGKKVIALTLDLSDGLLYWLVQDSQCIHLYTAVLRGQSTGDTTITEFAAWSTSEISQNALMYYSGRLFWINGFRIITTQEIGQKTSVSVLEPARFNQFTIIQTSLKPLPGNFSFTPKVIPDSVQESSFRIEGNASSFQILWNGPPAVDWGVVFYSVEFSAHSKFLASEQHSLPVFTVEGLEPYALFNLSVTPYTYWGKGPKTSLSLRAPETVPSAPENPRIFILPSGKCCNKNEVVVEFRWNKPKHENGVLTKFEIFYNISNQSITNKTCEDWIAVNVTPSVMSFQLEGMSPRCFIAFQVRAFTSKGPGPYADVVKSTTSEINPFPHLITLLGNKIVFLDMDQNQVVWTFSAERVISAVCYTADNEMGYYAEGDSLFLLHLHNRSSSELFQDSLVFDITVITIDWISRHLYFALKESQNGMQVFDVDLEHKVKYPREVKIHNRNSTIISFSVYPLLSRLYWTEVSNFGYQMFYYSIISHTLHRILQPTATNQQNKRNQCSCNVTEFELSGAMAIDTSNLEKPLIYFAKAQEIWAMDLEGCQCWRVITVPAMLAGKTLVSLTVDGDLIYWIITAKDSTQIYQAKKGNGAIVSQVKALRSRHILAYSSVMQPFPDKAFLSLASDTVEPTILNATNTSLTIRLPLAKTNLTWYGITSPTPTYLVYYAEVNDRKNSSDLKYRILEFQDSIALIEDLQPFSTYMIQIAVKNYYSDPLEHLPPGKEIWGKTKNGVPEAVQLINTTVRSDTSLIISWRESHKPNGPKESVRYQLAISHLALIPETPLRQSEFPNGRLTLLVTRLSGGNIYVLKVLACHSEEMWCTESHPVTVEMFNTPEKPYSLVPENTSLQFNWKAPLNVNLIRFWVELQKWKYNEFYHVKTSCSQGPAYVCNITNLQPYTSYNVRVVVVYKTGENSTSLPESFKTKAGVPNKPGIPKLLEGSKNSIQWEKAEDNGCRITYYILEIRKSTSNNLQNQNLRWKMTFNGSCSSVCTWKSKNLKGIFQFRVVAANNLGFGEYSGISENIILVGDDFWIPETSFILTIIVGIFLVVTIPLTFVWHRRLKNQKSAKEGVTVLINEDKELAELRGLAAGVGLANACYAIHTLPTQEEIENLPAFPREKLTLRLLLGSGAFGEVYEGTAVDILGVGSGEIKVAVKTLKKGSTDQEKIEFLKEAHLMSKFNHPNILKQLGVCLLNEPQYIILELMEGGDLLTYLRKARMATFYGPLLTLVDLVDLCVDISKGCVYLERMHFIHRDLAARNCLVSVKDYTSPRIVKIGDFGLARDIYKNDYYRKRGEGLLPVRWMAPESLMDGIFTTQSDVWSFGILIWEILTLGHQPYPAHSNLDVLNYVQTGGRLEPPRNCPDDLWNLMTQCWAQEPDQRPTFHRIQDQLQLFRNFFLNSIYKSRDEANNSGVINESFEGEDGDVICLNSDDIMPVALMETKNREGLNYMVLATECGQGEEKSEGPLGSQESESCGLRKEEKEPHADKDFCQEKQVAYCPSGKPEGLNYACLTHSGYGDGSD
# Tyrosine-protein kinase ABL2 (Homo sapiens), sequence (P42684 whole entry): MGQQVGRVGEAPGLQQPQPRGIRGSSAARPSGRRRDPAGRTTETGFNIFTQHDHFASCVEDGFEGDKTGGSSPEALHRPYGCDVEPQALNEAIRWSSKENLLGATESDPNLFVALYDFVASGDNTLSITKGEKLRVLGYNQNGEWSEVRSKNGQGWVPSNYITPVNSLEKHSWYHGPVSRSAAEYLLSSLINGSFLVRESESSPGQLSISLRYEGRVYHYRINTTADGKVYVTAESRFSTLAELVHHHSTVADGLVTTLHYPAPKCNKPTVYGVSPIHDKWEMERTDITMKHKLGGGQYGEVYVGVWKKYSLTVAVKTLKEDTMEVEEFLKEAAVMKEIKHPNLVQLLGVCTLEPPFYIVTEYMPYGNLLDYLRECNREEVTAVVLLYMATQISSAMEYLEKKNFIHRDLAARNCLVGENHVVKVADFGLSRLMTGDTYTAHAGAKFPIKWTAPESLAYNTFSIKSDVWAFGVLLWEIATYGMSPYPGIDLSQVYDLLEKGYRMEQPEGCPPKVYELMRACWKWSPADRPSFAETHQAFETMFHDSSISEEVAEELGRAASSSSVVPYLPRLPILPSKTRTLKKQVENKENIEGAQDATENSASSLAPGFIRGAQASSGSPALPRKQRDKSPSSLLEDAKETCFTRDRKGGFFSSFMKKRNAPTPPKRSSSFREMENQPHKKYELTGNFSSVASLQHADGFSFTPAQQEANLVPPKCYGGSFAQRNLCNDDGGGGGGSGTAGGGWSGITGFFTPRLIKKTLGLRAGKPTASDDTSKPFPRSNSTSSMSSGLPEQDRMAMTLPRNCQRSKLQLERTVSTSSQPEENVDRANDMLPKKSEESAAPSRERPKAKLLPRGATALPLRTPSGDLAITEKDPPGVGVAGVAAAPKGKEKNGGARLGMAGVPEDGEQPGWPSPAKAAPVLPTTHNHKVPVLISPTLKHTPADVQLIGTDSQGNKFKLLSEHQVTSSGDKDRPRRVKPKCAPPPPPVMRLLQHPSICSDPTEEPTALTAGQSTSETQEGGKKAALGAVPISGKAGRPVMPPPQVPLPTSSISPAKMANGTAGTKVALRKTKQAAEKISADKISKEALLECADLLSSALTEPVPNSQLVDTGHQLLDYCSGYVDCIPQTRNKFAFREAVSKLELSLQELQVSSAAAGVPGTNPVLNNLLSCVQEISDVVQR
# Tyrosine-protein kinase Lck, sequence (P06239 whole entry): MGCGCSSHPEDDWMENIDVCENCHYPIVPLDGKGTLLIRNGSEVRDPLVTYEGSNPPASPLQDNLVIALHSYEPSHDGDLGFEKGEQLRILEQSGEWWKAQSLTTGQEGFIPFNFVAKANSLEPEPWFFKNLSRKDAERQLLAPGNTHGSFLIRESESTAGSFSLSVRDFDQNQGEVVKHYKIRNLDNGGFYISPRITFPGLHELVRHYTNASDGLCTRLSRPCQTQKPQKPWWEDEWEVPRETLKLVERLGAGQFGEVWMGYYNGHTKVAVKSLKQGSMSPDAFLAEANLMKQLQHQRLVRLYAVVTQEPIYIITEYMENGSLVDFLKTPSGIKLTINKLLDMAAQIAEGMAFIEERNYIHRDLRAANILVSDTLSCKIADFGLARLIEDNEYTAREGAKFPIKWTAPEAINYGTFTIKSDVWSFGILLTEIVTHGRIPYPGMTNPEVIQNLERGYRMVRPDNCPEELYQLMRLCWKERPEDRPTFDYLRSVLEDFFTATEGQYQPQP
structure (smiles),measurement,setting,value
O=C(Nc1nc2cccc(-c3ccc(CN4CCS(=O)(=O)CC4)cc3)n2n1)C1CC1 [FILGOTINIB],IC50,[1],2.3 µM
same,inhibition,[2],14%
same,inhibition,[3],1%
same,IC50,[4],> 10 µM
same,inhibition,[5],-4%
same,IC50,[6],> 10 µM
same,inhibition,[7],26%
same,inhibition,[8],-1%
same,IC50,[9],0.274 µM
same,IC50,[10],0.489 µM
same,IC50,[11],> 10 µM
same,inhibition,[12],-10%
same,IC50,[13],> 10 µM
same,IC50,[14],> 10 µM
same,IC50,[15],> 10 µM
same,IC50,[16],> 10 µM
same,inhibition,[17],-10%
same,inhibition,[18],3%
same,inhibition,[19],-7%
same,inhibition,[20],-7%
same,inhibition,[21],-2%
same,inhibition,[22],-8%
same,inhibition,[23],-9%
same,inhibition,[24],4%
same,inhibition,[25],2%
same,inhibition,[26],-4%
same,inhibition,[27],1%
same,inhibition,[28],5%
same,inhibition,[29],14%
same,inhibition,[30],44%
same,inhibition,[31],-10%
same,inhibition,[32],58%
same,Vd,[33],6 L/kg
same,AUC,[34],1680 ng·h/mL
same,Activity,[35],Active
same,Tmax,[36],~1 h
same,Activity,[37],Active
same,Activity,[38],Active
same,Activity,[39],7.8 ng/mL
same,Activity,[40],Active
same,Activity,[41],inactive
